System: 186277-243-T-J2-PDC spheroids with HUVEC/MSC, viability
Test: Anticancer human tumor 186277-243-T-J2-PDC patient-derived colon adenocarcinoma cell line growth inhibition [CLK]
Conditions: for IC50: curve of first compound; for viability, T/C: stronger effect = lower value
Outline: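 Multi-cell-type spheroids combined patient-derived tumor cells with HUVEC endothelial cells and human mesenchymal stem cells. Paired agents were dosed in half-log steps down from about clinical Cmax, or from 10 microM where Cmax was unknown.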
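Also: compound exposure lasted seven days before readout.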
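For viability, T/C in this document: 100% = DMSO vehicle control wells.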

With `C#Cc1c(F)ccc2cc(O)cc(-c3ncc4c(N5CC6CCC(C5)N6)nc(OCC56CCCN5CC(F)C6)nc4c3F)c12` (centres undefined) + CNC(=O)c1ccc(Nc2nc(OC3CCCC3)c3c(-c4ccc5nc(C)oc5c4)c[nH]c3n2)c(OC)c1 the IC50 (second compound 0.0316 µM) was 244 nM, the IC50 (second compound 0.1 µM) was under 31.6 nM and the IC50 (second compound 0.316 µM) was under 31.6 nM. It also gave an IC50 (second compound 1 µM) of under 31.6 nM, an IC50 (second compound 3.16 µM) of under 31.6 nM and an IC50 (second compound 10 µM) of under 31.6 nM. The viability, T/C (second compound 0.0316 µM, first compound 0.0316 µM) was 85.1%, the viability, T/C (second compound 0.0316 µM, first compound 0.1 µM) was 74.1% and the viability, T/C (second compound 0.0316 µM, first compound 0.316 µM) was 42.3%. For the same compound, the viability, T/C (second compound 0.0316 µM, first compound 1 µM) was 20.4%, the viability, T/C (second compound 0.0316 µM, first compound 3.16 µM) was 15.4% and the viability, T/C (second compound 0.0316 µM, first compound 10 µM) was 9.35%. The viability, T/C (second compound 0.1 µM, first compound 0.0316 µM) was 32.4%, the viability, T/C (second compound 0.1 µM, first compound 0.1 µM) was 20.2% and the viability, T/C (second compound 0.1 µM, first compound 0.316 µM) was 12.4%. It also gave a viability, T/C (second compound 0.1 µM, first compound 1 µM) of 10.1%, a viability, T/C (second compound 0.1 µM, first compound 3.16 µM) of 9.23% and a viability, T/C (second compound 0.1 µM, first compound 10 µM) of 7.22%. It also gave a viability, T/C (second compound 0.316 µM, first compound 0.0316 µM) of 16.6%, a viability, T/C (second compound 0.316 µM, first compound 0.1 µM) of 10.6% and a viability, T/C (second compound 0.316 µM, first compound 0.316 µM) of 9.98%. For the same compound, the viability, T/C (second compound 0.316 µM, first compound 1 µM) was 7.75%, the viability, T/C (second compound 0.316 µM, first compound 3.16 µM) was 6.06% and the viability, T/C (second compound 0.316 µM, first compound 10 µM) was 5.84%. It also gave a viability, T/C (second compound 1 µM, first compound 0.0316 µM) of 13.1%, a viability, T/C (second compound 1 µM, first compound 0.1 µM) of 9.92% and a viability, T/C (second compound 1 µM, first compound 0.316 µM) of 6.68%. It also gave a viability, T/C (second compound 1 µM, first compound 1 µM) of 8.68%, a viability, T/C (second compound 1 µM, first compound 3.16 µM) of 7.28% and a viability, T/C (second compound 1 µM, first compound 10 µM) of 3.31%. The viability, T/C (second compound 3.16 µM, first compound 0.0316 µM) was 12%, the viability, T/C (second compound 3.16 µM, first compound 0.1 µM) was 11.4% and the viability, T/C (second compound 3.16 µM, first compound 0.316 µM) was 6.47%. For the same compound, the viability, T/C (second compound 3.16 µM, first compound 1 µM) was 5.65%, the viability, T/C (second compound 3.16 µM, first compound 3.16 µM) was 6.73% and the viability, T/C (second compound 3.16 µM, first compound 10 µM) was 4.61%. For the same compound, the viability, T/C (second compound 10 µM, first compound 0.0316 µM) was 15.6%, the viability, T/C (second compound 10 µM, first compound 0.1 µM) was 9.24% and the viability, T/C (second compound 10 µM, first compound 0.316 µM) was 6.48%. It also gave a viability, T/C (second compound 10 µM, first compound 1 µM) of 5.74%, a viability, T/C (second compound 10 µM, first compound 3.16 µM) of 6.36% and a viability, T/C (second compound 10 µM, first compound 10 µM) of 3.45%.

Compound `CC(C)CC(NC(=O)C(Cc1ccccc1)NC(=O)c1cnccn1)B(O)O` (centres undefined) + CN1CCN(c2cc(C(=O)Nc3cc4cc(-c5cnn(C)c5)ccc4cn3)ccn2)CC1 has an IC50 (second compound 0.0316 µM) of 4.52 nM, an IC50 (second compound 0.1 µM) of 2.27 nM and an IC50 (second compound 0.316 µM) of under 0.949 nM. The IC50 (second compound 1 µM) was under 0.949 nM, the IC50 (second compound 3.16 µM) was under 0.949 nM and the IC50 (second compound 10 µM) was under 0.949 nM. It also gave a viability, T/C (second compound 0.0316 µM, first compound 0.000949 µM) of 93%, a viability, T/C (second compound 0.0316 µM, first compound 0.003 µM) of 77.2% and a viability, T/C (second compound 0.0316 µM, first compound 0.00949 µM) of 0.25%. The viability, T/C (second compound 0.0316 µM, first compound 0.03 µM) was 0.9%, the viability, T/C (second compound 0.0316 µM, first compound 0.0949 µM) was 0.78% and the viability, T/C (second compound 0.0316 µM, first compound 0.3 µM) was 1.15%. For the same compound, the viability, T/C (second compound 0.1 µM, first compound 0.000949 µM) was 88.1%, the viability, T/C (second compound 0.1 µM, first compound 0.003 µM) was 37.7% and the viability, T/C (second compound 0.1 µM, first compound 0.00949 µM) was 1.84%. For the same compound, the viability, T/C (second compound 0.1 µM, first compound 0.03 µM) was 0.31%, the viability, T/C (second compound 0.1 µM, first compound 0.0949 µM) was 1.92% and the viability, T/C (second compound 0.1 µM, first compound 0.3 µM) was 0.17%. It also gave a viability, T/C (second compound 0.316 µM, first compound 0.000949 µM) of 26.1%, a viability, T/C (second compound 0.316 µM, first compound 0.003 µM) of 1.14% and a viability, T/C (second compound 0.316 µM, first compound 0.00949 µM) of 1.35%. The viability, T/C (second compound 0.316 µM, first compound 0.03 µM) was 1.4%, the viability, T/C (second compound 0.316 µM, first compound 0.0949 µM) was 1.62% and the viability, T/C (second compound 0.316 µM, first compound 0.3 µM) was 0.34%. For the same compound, the viability, T/C (second compound 1 µM, first compound 0.000949 µM) was 0.5%, the viability, T/C (second compound 1 µM, first compound 0.003 µM) was 0.4% and the viability, T/C (second compound 1 µM, first compound 0.00949 µM) was 1.57%. It also gave a viability, T/C (second compound 1 µM, first compound 0.03 µM) of 0.8%, a viability, T/C (second compound 1 µM, first compound 0.0949 µM) of 1.78% and a viability, T/C (second compound 1 µM, first compound 0.3 µM) of 0.17%. For the same compound, the viability, T/C (second compound 3.16 µM, first compound 0.000949 µM) was 2.83%, the viability, T/C (second compound 3.16 µM, first compound 0.003 µM) was 0.72% and the viability, T/C (second compound 3.16 µM, first compound 0.00949 µM) was 0.33%. For the same compound, the viability, T/C (second compound 3.16 µM, first compound 0.03 µM) was 1.62%, the viability, T/C (second compound 3.16 µM, first compound 0.0949 µM) was 1.24% and the viability, T/C (second compound 3.16 µM, first compound 0.3 µM) was 0.17%. The viability, T/C (second compound 10 µM, first compound 0.000949 µM) was 1.17%, the viability, T/C (second compound 10 µM, first compound 0.003 µM) was 0.46% and the viability, T/C (second compound 10 µM, first compound 0.00949 µM) was 0.27%. It also gave a viability, T/C (second compound 10 µM, first compound 0.03 µM) of 1.87%, a viability, T/C (second compound 10 µM, first compound 0.0949 µM) of 1.18% and a viability, T/C (second compound 10 µM, first compound 0.3 µM) of 0.16%.

Source: PubChem BioAssay AID2060625 (Molecular Pharmacology Branch, DTP, NCI, 2025)
